The source of these data is PubChem BioAssay AID330 (DTP/NCI, 2004).

The assay has as its system P388 leukemia ip, CD2F1 mice, survival T/C. Description: NCI In Vivo Anticancer Drug Screen. Data for tumor model P388 Leukemia (intraperitoneal) in CD2F1 (CDF1) mice. Conditions: endpoint: median survival time, higher = longer survival. The method in brief:
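Mice carrying the transplanted tumor received test compound or vehicle. Survival was recorded in each group, and the value is the treated-group measurement divided by that of the vehicle-treated control group.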

Where [1] appears, read: dose: 12.5 mg/kg/injection, schedule: Q01DX005 (ip), vehicle: saline.
Setting [2] is: dose: 25.0 mg/kg/injection, schedule: Q01DX005 (ip), vehicle: saline.
Where [3] appears, read: dose: 50.0 mg/kg/injection, schedule: Q01DX005 (ip), vehicle: Klucel (hydroxypropylcellulose) (HPC).
[4] abbreviates: dose: 100.0 mg/kg/injection, schedule: Q01DX005 (ip), vehicle: Klucel (hydroxypropylcellulose) (HPC).
[5] abbreviates: dose: 50.0 mg/kg/injection, schedule: Q01DX009 (ip), vehicle: Klucel (hydroxypropylcellulose) (HPC).
The mark [6] stands for this setting: dose: 100.0 mg/kg/injection, schedule: Q01DX009 (ip), vehicle: Klucel (hydroxypropylcellulose) (HPC).
The mark [7] stands for this setting: dose: 50.0 mg/kg/injection, schedule: Q01DX009 (ip), vehicle: saline with Tween-80.
Setting [8] is: dose: 50.0 mg/kg/injection, schedule: Q01DX009 (ip), vehicle: saline.
[9] abbreviates: dose: 100.0 mg/kg/injection, schedule: Q01DX009 (ip), vehicle: saline.
Setting [10] is: dose: 200.0 mg/kg/injection, schedule: Q01DX009 (ip), vehicle: saline.
The mark [11] stands for this setting: dose: 100.0 mg/kg/injection, schedule: Q01DX009 (ip), vehicle: saline with Tween-80.
The mark [12] stands for this setting: dose: 200.0 mg/kg/injection, schedule: Q01DX009 (ip), vehicle: saline with Tween-80.
Where [13] appears, read: dose: 25.0 mg/kg/injection, schedule: Q01DX005 (ip), vehicle: Klucel (hydroxypropylcellulose) (HPC).

Several values for one entry are separate records, joined by “and”; a condition that tells them apart may be missing. Identical values can stand only once. Inconclusive results and toxic doses are left out.

For `CCOC(=O)NC(NC(=O)OCC)c1ccc(C(NC(=O)OCC)NC(=O)OCC)cc1`, the T/C is 99 % of control (dose: 100.0 mg/kg/injection, schedule: Q04DX003 (ip), vehicle: saline); 90 % of control (dose: 200.0 mg/kg/injection, schedule: Q04DX003 (ip), vehicle: saline); 89 % of control (dose: 400.0 mg/kg/injection, schedule: Q04DX003 (ip), vehicle: saline).

In the case of `O=S1(=O)CS(=O)(=O)OCCCCO1`, the T/C under setting [1] is 176 % of control; the T/C under setting [2] was 167 % of control and 199 % of control; the T/C (dose: 50.0 mg/kg/injection, schedule: Q01DX005 (ip), vehicle: saline) was 87 % of control.

Consider `CC(/C=N/Nc1ccccc1)=N\N=c1/scc(-c2ccc(Br)cc2)n1-c1ccc(Cl)cc1`, for which the T/C is, setting by setting: (dose: 12.5 mg/kg/injection, schedule: Q01DX001 (ip), vehicle: saline with Tween-80) 98 % of control; (dose: 25.0 mg/kg/injection, schedule: Q01DX001 (ip), vehicle: saline with Tween-80) 89 % of control; (dose: 50.0 mg/kg/injection, schedule: Q01DX001 (ip), vehicle: saline with Tween-80) 86 % of control.

In the case of `CC1=CC(=Nc2cc(Br)c(O)c(Br)c2)C=CC1=O`, the T/C is, setting by setting: (dose: 6.25 mg/kg/injection, schedule: Q01DX005 (ip), vehicle: saline) 100 % of control; under setting [1], 100 % of control; under setting [2], 105 % of control.

Consider `O=C(Cn1nnc(N2CCCCC2)n1)N/N=C/c1ccccc1O`, for which the T/C runs as follows: (dose: 30.0 mg/kg/injection, schedule: Q01DX005 (ip), vehicle: Klucel (hydroxypropylcellulose) (HPC)) 88 % of control; (dose: 120.0 mg/kg/injection, schedule: Q01DX005 (ip), vehicle: Klucel (hydroxypropylcellulose) (HPC)) 95 % of control; (dose: 240.0 mg/kg/injection, schedule: Q01DX005 (ip), vehicle: Klucel (hydroxypropylcellulose) (HPC)) 95 % of control.

For `CC1=CC(C)(C(Cl)(Cl)Cl)C(C)=CC1=O` (stereo not drawn), the T/C under setting [3] was 98 % of control; the T/C under setting [4] was 99 % of control; the T/C (dose: 200.0 mg/kg/injection, schedule: Q01DX005 (ip), vehicle: Klucel (hydroxypropylcellulose) (HPC)) is 101 % of control.

In the case of `NC1CNC(C(=O)O)=C(CC(=O)O)C1=O` (stereo not drawn), the T/C is 101 % of control (dose: 4.25 mg/kg/injection, schedule: Q01DX005 (ip), vehicle: sodium bicarbonate); 99 % of control (dose: 8.5 mg/kg/injection, schedule: Q01DX005 (ip), vehicle: sodium bicarbonate); 106 % of control (dose: 17.0 mg/kg/injection, schedule: Q01DX005 (ip), vehicle: sodium bicarbonate); 99 % of control (dose: 34.0 mg/kg/injection, schedule: Q01DX005 (ip), vehicle: sodium bicarbonate).

Take `CCN1C(C)N1P(=S)(OC1CC(C)(C)N(O)C(C)(C)C1)OC1CC(C)(C)N(O)C(C)(C)C1` (stereo not drawn): the T/C is 93 % of control under setting [3] and 86 % of control under setting [4].

For the compound `CCOC(=O)c1ccc(NC(=O)c2cccc(Cl)c2)cc1`, the T/C is 104 % of control under setting [5]; 100 % of control under setting [6]; 98 % of control (dose: 200.0 mg/kg/injection, schedule: Q01DX009 (ip), vehicle: Klucel (hydroxypropylcellulose) (HPC)).

Regarding `O=[N+]([O-])c1ccc([I+]c2ccccc2)cc1`, the T/C (dose: 12.5 mg/kg/injection, schedule: Q01DX009 (ip), vehicle: saline with Tween-80) is 154 % of control; the T/C (dose: 25.0 mg/kg/injection, schedule: Q01DX005 (ip), vehicle: saline with Tween-80) was 120 % of control and 124 % of control; the T/C (dose: 25.0 mg/kg/injection, schedule: Q01DX009 (ip), vehicle: saline with Tween-80) was 153 % of control; the T/C under setting [7] is 153 % of control; the T/C (dose: 60.0 mg/kg/injection, schedule: Q01DX005 (ip), vehicle: saline with Tween-80) is 98 % of control; the T/C (dose: 100.0 mg/kg/injection, schedule: Q01DX005 (ip), vehicle: saline with Tween-80) was 88 % of control.

On to `O=C1OC(CCCl)CN1Cc1ccccc1` (stereo not drawn), for which the T/C was 103 % of control under setting [8], 103 % of control under setting [9] and 98 % of control under setting [10].

For the compound `COc1cc2c(c(OC)c1OC)-c1cc3c(cc1C(OC1OC(CO)C(O)C(O)C1O)C1COC(=O)C1C2)OCO3` (stereo not drawn), the T/C was 108 % of control (dose: 15.38 mg/kg/injection, schedule: Q01DX005 (ip), vehicle: Klucel (hydroxypropylcellulose) (HPC)); 100 % of control (dose: 30.75 mg/kg/injection, schedule: Q01DX005 (ip), vehicle: Klucel (hydroxypropylcellulose) (HPC)); 113 % of control (dose: 61.5 mg/kg/injection, schedule: Q01DX005 (ip), vehicle: Klucel (hydroxypropylcellulose) (HPC)); 121 % of control (dose: 123.0 mg/kg/injection, schedule: Q01DX005 (ip), vehicle: Klucel (hydroxypropylcellulose) (HPC)).

Consider `Nc1ncnc2c1ccn2COCCO`, for which the T/C (dose: 50.0 mg/kg/injection, schedule: Q01DX005 (ip), vehicle: distilled water + alcohol) is 100 % of control; the T/C (dose: 100.0 mg/kg/injection, schedule: Q01DX005 (ip), vehicle: distilled water + alcohol) was 101 % of control; the T/C (dose: 200.0 mg/kg/injection, schedule: Q01DX005 (ip), vehicle: distilled water + alcohol) is 99 % of control.

`c1ccc(CSc2nnc(NC3CCCCC3)s2)cc1`: the T/C is 96 % of control under setting [7], 96 % of control under setting [11] and 100 % of control under setting [12].

In the case of `CN1C(C)(C)CC(O)CC1(C)C`, the T/C was 102 % of control (dose: 60.0 mg/kg/injection, schedule: Q01DX005 (ip), vehicle: saline) and 102 % of control (dose: 120.0 mg/kg/injection, schedule: Q01DX005 (ip), vehicle: saline).

On to `Cc1ccc(NC(=O)N(NC(=O)NNc2ccccc2)c2ccccc2)c(C)c1`, for which the T/C was 99 % of control under setting [7], 93 % of control under setting [11] and 92 % of control under setting [12].

Take `O=C(O)Cc1ccc(C2CCCCC2)cc1`: the T/C is, setting by setting: (dose: 100.0 mg/kg/injection, schedule: Q04DX003 (ip), vehicle: Klucel (hydroxypropylcellulose) (HPC)) 90 % of control; (dose: 200.0 mg/kg/injection, schedule: Q04DX003 (ip), vehicle: Klucel (hydroxypropylcellulose) (HPC)) 100 % of control; (dose: 400.0 mg/kg/injection, schedule: Q04DX003 (ip), vehicle: Klucel (hydroxypropylcellulose) (HPC)) 100 % of control.

In the case of `CS(=O)(=O)/C=C/c1ccccc1`, the T/C reads like this: under setting [7], 103 % of control; under setting [11], 90 % of control; under setting [12], 90 % of control.

On to `CN1CCc2c1c1c(c3c4ccccc4n(C)c23)N(C)CC1`, for which the T/C (dose: 6.25 mg/kg/injection, schedule: Q01DX005 (ip), vehicle: Klucel (hydroxypropylcellulose) (HPC)) is 103 % of control; the T/C (dose: 12.5 mg/kg/injection, schedule: Q01DX005 (ip), vehicle: Klucel (hydroxypropylcellulose) (HPC)) is 104 % of control; the T/C under setting [13] is 107 % of control.

Take `Cn1c(N)c(N=Nc2cccnc2)c(=O)n(C)c1=O`: the T/C by setting is: (dose: 100.0 mg/kg/injection, schedule: Q01DX001 (ip), vehicle: saline with Tween-80) 95 % of control; (dose: 200.0 mg/kg/injection, schedule: Q01DX001 (ip), vehicle: saline with Tween-80) 98 % of control; (dose: 400.0 mg/kg/injection, schedule: Q01DX001 (ip), vehicle: saline with Tween-80) 95 % of control.

Turning to `O=c1nc(-c2ccccc2)sc(=O)[nH]1`, the T/C is, setting by setting: under setting [5], 102 % of control; under setting [6], 111 % of control.

As for `CC1=C(C)C(C#N)N(C)CC1` (stereo not drawn), the T/C reads like this: (dose: 3.75 mg/kg/injection, schedule: Q01DX005 (ip), vehicle: Klucel (hydroxypropylcellulose) (HPC)) 102 % of control; (dose: 7.5 mg/kg/injection, schedule: Q01DX005 (ip), vehicle: Klucel (hydroxypropylcellulose) (HPC)) 100 % of control.

As for `NOCc1cccc([N+](=O)[O-])c1`, the T/C was 104 % of control under setting [8], 95 % of control under setting [9] and 100 % of control under setting [10].

With `CC(C)Cn1c(C(C)C)nc([N+](=O)[O-])c1Sc1ncn[nH]1`, the T/C was 108 % of control under setting [13]; 108 % of control and 118 % of control under setting [3]; 123 % of control under setting [4].
